Assay results as given in US20220133662A1, “ORAL DRUG, ADJUVANT CANCER THERAPY, AND PET THERAPEUTIC DIET” (priority 2019, published 2022).

Legend:
[1] = in vivo; cited from earlier work
Hela cells = assay: Survival rate of Hela cells (MTT), ketone donors alone or with cisplatin; type: cell-based; details: 1 mM ketone donor with 0.3-3 μM of cisplatin, versus untreated group
Experimental: (§1) COS7 cells, that are a renal cytoblastoma, were used. Subconfluent cells were spread on 24-well plates at a density of 40,000 cells/cm^2 and cultured in Dulbecco's Modified Eagle Medium (D-MEM) containing 10% of inactivated fetal bovine serum for one hour. Various concentrations of ketone bodies (HB) and ketone ester (KE) were added to the culture medium of COS7 cells and cultured for 24 hours. After 24 hours of culturing, the culture medium was removed, and COS7 cells were cultured for two hours in PBS with 1 mg/ml of a chromogenic reagent 3-(4,5-dimethylthiazol-2-yl)-2,5-diphenyl tetrazolium bromide (MTT, Wako Pure Chemical Corporation).
(§2) After the culturing, cell lysis solution (50% formamide, 20% sodium dodecyl sulfate) was added and left for 24 hours. Thereafter, the absorbance at 540 nm was measured using an absorbance measurement device (Biorad microplate reader), and the measured absorbance was used to calculate survival rates of COS7 cells.

COS7 cells = assay: Survival rate of COS7 cells (MTT), ketone donors alone or with cisplatin; type: cell-based; details: 1 mM ketone donor added with cisplatin, versus untreated group
Experimental: as §1, §2

[2] = cited from earlier work
[3] = Ketone body concentration in the blood after a single ingestion in yogurt; type: in vivo; details: humans, 500 mg/kg of body weight in yogurt (200 g)
Experimental: PHB was extracted from OITC1261 by the method for purifying the powdered PHB shown in Example 2 (purity: 90%, weight-average molecular weight: 590,000). Ketone ester and PHB whose amounts were adjusted such that the intake thereof was 500 mg/kg of body weight were mixed uniformly in yogurt (200 g) and fed to humans. The ketone body concentration in the blood was measured using a ketone body value electrode (FS Precision ketone measurement electrode) of Precision Exceed (Abbott) every other hour. After ketone bodies were confirmed to be stable, plain yogurt was ingested.
The horizontal axis of the graph in FIG. 8 represents time. The vertical axis represents the ketone body concentration in the blood. Squares represent changes in the ketone body concentration in the blood over time in a group that ingested plain yogurt mixed with ketone ester. […]
The powdered PHB and ketone bodies whose amounts were adjusted such that the intake thereof was 500 mg, 300 mg, 100 mg, or 0 mg/kg of body weight were mixed uniformly in yogurt (200 g) and fed to humans. […] The ketone body concentration in the blood over time was measured using a ketone body value electrode (FS Precision ketone measurement electrode) of Precision Exceed (Abbott) every other hour. […]

Row | Structure (SMILES) | share of ketone bodies transferred to the brain [1] | adjuvant effect on toxicity caused by cisplatin (Hela cells) | adjuvant effect on toxicity caused by cisplatin (COS7 cells) | time in which ketone body concentration in the blood increases after ingestion ([2]; ketone bodies ingested) | time after ingestion at which ketone body concentration in the blood returns to the original level [3] | increase of the ketone body concentration in the blood ([2]; ketone ester ingested)
1 | C[C@@H](O)CC(=O)O [ketone bodies, (R)-3-β-hydroxybutyric acid] | 20-30% | significantly promoted the toxic effects due to cisplatin | significantly promoted the toxic effect caused by cisplatin | within a few minutes | – | –
2 | C[C@@H](O)CCOC(=O)C[C@@H](C)O [ketone ester, 3-hydroxybutyl-3-hydroxybutyric acid] | – | – | – | – | about five | several mM in a few minutes
